According to paper PMC6630837 (Pharmaceuticals, 2019):
Entries after “also recorded” stand apart in the source; their conditions may differ.

Assays:
[1] = molecular target: acetylcholinesterase (AChE) (Electrophorus electricus, UniProt O42275); experiment: Acetylcholinesterase inhibition, Ellman's colorimetric assay; assay type: biochemical; conditions: 100 µM compound
Method: For cholinesterase inhibition tests (acetylcholinesterase (AChE, electrophorus
was kept within 1.25% cuvette concentration.
AChE and at 18.2 µM concentration for BuChE. […]

[2] = LogD7.4 determination (octan-1-ol/phosphate buffer, LC-MS); assay type: physicochemical; conditions: octan-1-ol/phosphate buffer, pH 7.4, octan-1-ol/phosphate buffer pH 7.4, 25 °C; read-out: Log D7.4 (partition coefficient at pH 7.4)
Method: LogD7.4 determination. The in-silico prediction tool ALOGPS [4] was used to estimate the octanol-water partition coefficients (log P) of the compounds. […] For each category, two different ratios (volume of octan-1-ol to volume of buffer) were defined as experimental parameters (Table 2).
Equal amounts of phosphate buffer (0.1 M, pH 7.4) and octan-1-ol were mixed and shaken vigorously for 5 min to saturate the phases. The mixture was left until separation of the two phases, and the buffer was retrieved. Stock solutions of the test compounds were diluted with buffer to a concentration of 1 μM. For each compound, three determinations per octan-1-ol:buffer ratio were performed in different wells of a 96-well plate. The respective volumes of buffer-containing analyte (1 μM) were pipetted to the wells and covered by saturated octan-1-ol according to the chosen volume ratio. […] The aqueous phase was transferred to a 96-well plate for analysis by liquid chromatography-mass spectrometry (LCMS, see below).
Results are presented as the mean ± SD of three independent experiments.
LC-MS measurements. […] The system was controlled with the Agilent MassHunter Workstation Data Acquisition software (version B.01.04). The column used was an AtlantisR T3 C18 column (2.1 × 50 mm) with a 3 μm-particle size (Waters Corp., Milford, MA, USA). The mobile phase consisted of eluent A: 10 mM ammonium acetate, pH 5.0 in 95:5, H2O:MeCN; and eluent B: MeCN containing 0.1% formic acid. The flow rate was maintained at 0.6 mL/min. […] MS parameters such as fragmentor voltage, collision energy, and polarity were optimized individually for each drug, and the molecular ion was followed for each compound in the multiple reaction monitoring mode. The concentrations of the analytes were quantified by the Agilent Mass Hunter Quantitative Analysis software (version B.01.04).

[3] = system: SH-SY5Y neuroblastoma cells; experiment: Cytotoxic activity of compounds alone, MTT cell viability assay; conditions: 50 μM compound alone, 24 h, 37 °C, 0.5% DMSO, SH-SY5Y
Method: Neuroprotective assays in human neuroblastoma (SH-SY5Y) cells. SH-SY5Y cells were grown in Dulbecco’s Modified Eagle Medium (DMEM, Gibco, Life Technologies) supplemented with 10% fetal bovine serum (FBS, Biochrom GmbH) and 1% Penicillin-Streptomycin (Gibco, Life Technologies) in a humidified incubator at 37 °C, 5% CO2. For the neuroprotective activity assay, undifferentiated SGSY-5Y cells were plated onto 96-well flat-bottomed microtiter plates at a density of 1 × 10^4 cells/well in DMEM supplemented with 2% FBS and preincubated for 24 h at 37 °C, 5% CO2. Compounds (stored as 10 mM solutions in DMSO at −20 °C) were then added to achieve a final concentration of 50 μM and, after 30 min, cells were incubated in the presence or absence of 20 μM Aβ protein fragment 1-42 (Sigma-Aldrich, dissolved in DMSO and stored in 2 mM aliquots at −20 °C) or 100 μM of H2O2 (Sigma-Aldrich, dissolved to 10 mM in 0.9% NaCl aqueous solution immediately prior to the assay) overnight at 37 °C, 5% CO2. […] The following morning, 20 μL of a 5 mg/mL solution of 3-(4,5-dimethylthiazol-2-yl)-2,5-diphenyltetrazolium bromide (MTT, Sigma-Aldrich) in PBS (Gibco, Life Technologies) was added to each well and the plates were further incubated for 4 h at 37 °C, followed by the addition of DMSO (200 μL) to each well in order to dissolve the resulting formazan crystals. After 2 h incubating at 37 °C, the optical density (OD) at 540 nm (with a 620 nm reference filter) was measured in an Amersham Biosciences Biotrak II Plate Reader. The percentage of MTT reduction was determined according to Equation (1). […] Differences between experimental conditions were compared for statistical significance by one-way ANOVA followed by a Tukey’s post-test, an analysis carried out using GraphPad Prism Software (LA Jolla, CA, USA). Differences were considered significant when P < 0.05. In order to exclude direct MTT reduction, compounds were also tested in (a) the absence of cells and (b) in the absence of both cells and culture medium, using the same experimental conditions described above. (2) MTT Reduction (% of Control)=[ODsample−ODmedium/ODcell control−ODmedium] × 100 […]
Tabl e S2. Cytotoxic activity of each compound assessed in SH-SY5Y neuroblastoma cells via an MTT cell viability assay.a Comp ound Nr. MTT reduction (% control) p-va l u e vs . untreated cell control (unpai red t-t es t) […]
a Cells were incubated for 24 h at 37 °C, in the presence (50 μM) or absence of each compound.

[4] = system: SH-SY5Y human neuroblastoma cells; experiment: Neuroprotection against Aβ1-42-induced toxicity, MTT cell viability assay; assay type: cell-based; conditions: 50 μM compound, 20 μM Aβ1-42, 24 h, 37 °C
Method: Neuroprotective activity assays against Aβ1-42-induced toxicity. From all compounds tested in the above presented assay, the pair 8 and 19 presented the strongest neuroprotective potential, with convincing proof on the importance of the aglycone for the desired neuroprotective effects against H2O2-induced cell injury. […] Here, the MTT assay was used once again to assess cell viability of SH-SY5Y cells treated with 20 μM of Aβ1-42, in the presence of 50 μM of each compound. Similar protocols have been used to screen candidates for AD therapy. Moreover, based on the existing evidence that in situ spontaneous fibrillization of Aβ1-42 in the incubation mixture is important in the triggering of neurotoxic effects, we added the Aβ1-42 peptide fragment dissolved in DMSO to the culture medium prior to incubation, together with each compound in study. […] Even though there is published evidence that undifferentiated SH-SY5Y cells are not as sensitive to Aβ1-42-induced neurite degeneration and apoptosis as differentiated ones, with 20 μM of Aβ1-42 we were able to observe a significant decrease in cellular MTT reduction capacity, corresponding to roughly half of the cell viability rates observed in the non-treated control.
(§1) Neuroprotective assays in human neuroblastoma (SH-SY5Y) cells. […] Differences were considered significant when P < 0.05.

[5] = molecular target: T1, butyrylcholinesterase (BuChE) (Equus caballus, UniProt P81908); experiment: biochemical; conditions: read-out: BuChE inhibitory efficacy (percentage of inhibition)
T1 construct: (BuChE, equine serum); from tissue; host or cells: equine serum
Method: Experimental procedures for cholinesterase inhibition a s sa y s. For cholinesterase inhibition tests (acetylcholinesterase (AChE, electrophorus
el ec t r ic u s) a n d b ut yr ylcholinesterase (BuChE, equine serum), the Ellman’s cholorimetric assay1 was followed, with minor modifications. DMSO
was kept within 1.25% cuvette concentration. The chromogenic agent DTNB [5,5’-dithiobis(2-nitrobenzoic acid)] was fixed at 0.975 mM
con centration; 0. 1 M phosphate buffer (pH 8. 0) was employed, T = 25 °C, and the reaction was monitored for 125 s. […]
of inhibition, the substrate concentration (acetylthiocholine iodide for AChE; S- butyr ylthiocholine iodide for BuChE) was fixed at 29 µM for
AChE and at 18.2 µM concentration for BuChE.
Lineweaver-Burk plot (or double reciprocal plot, 1/V vs . 1/ [S ]) wa s u se d for estimating both, the mode of inhibition and the inhibition constants […]
Competitive inhibition (inhibitor only bonds the free enzyme):
KKiiii = [II ]KKMM iiaaaa
M i xe d inhibition (inhibitor binds both, the free and the complexed enzyme) :
Uncompetitive (the inhibitors only binds the complexed enzyme):
N on -competitive (inhibitor binds both the free enzyme and the complexed enzyme with equal affinity) :
Table S3. […]
of the synthesized flavone analogues at 100 µ M.
C omp ou n d N o. AChE B uChE

[6] = system: SH-SY5Y human neuroblastoma cells; experiment: Neuroprotection against H2O2-induced toxicity, MTT cell viability assay; assay type: cell-based; conditions: 50 μM compound, 100 μM H2O2, 24 h, 37 °C
Text: Neuroprotective activity assays against H2O2-induced toxicity. On the basis of previously described protocols, the flavones and analogues herein synthesized were screened for their neuroprotective effects against H2O2-induced oxidative stress and neuronal damage in SH-SY5Y human neuroblastoma cells by means of a thiazolyl blue tetrazolium bromide (MTT) reduction-based cell viability assay.
as §1

[7] = assay type: in vitro ADME; conditions: PAMPA, pH 7.4, 16 h
Method: Parallel artificial membrane permeability assay (PAMPA). Effective permeability (log Pe) was determined in a 96-well format with PAMPA [34]. For each compound, measurements were performed at pH 7.4 in quadruplicates. Four wells of a deep well-plate were filled with 650 μL of PRISMA HT universal buffer, adjusted to pH 7.4 by adding the requested amount of NaOH (0.5 M). Samples (150 μL) were withdrawn from each well to determine the blank spectra by UV/Vis-spectroscopy (190 to 500 nm, SpectraMax 190, Molecular Devices, Silicon Valley, CA, USA). Then the analyte, dissolved in DMSO (10 mM), was added to the remaining buffer to yield 50 μM solutions. To exclude precipitation, the optical density (OD) was measured at 650 nm, and solutions exceeding OD 0.01 were filtrated. Afterwards, samples (150 μL) were withdrawn to determine the reference spectra. […] The filter membranes at the bottom of the acceptor plate were infused with 5 μL of GIT-0 Lipid Solution and 200 μL of Acceptor Sink Buffer were filled into each acceptor well. The sandwich was assembled, placed in the GutBox^TM, and left undisturbed for 16 h. Then, it was disassembled and samples (150 μL) were transferred from each donor and acceptor well to UV-plates for determination of the UV/Vis spectra.

acetylcholinesterase (AChE), sequence (O42275 24-633): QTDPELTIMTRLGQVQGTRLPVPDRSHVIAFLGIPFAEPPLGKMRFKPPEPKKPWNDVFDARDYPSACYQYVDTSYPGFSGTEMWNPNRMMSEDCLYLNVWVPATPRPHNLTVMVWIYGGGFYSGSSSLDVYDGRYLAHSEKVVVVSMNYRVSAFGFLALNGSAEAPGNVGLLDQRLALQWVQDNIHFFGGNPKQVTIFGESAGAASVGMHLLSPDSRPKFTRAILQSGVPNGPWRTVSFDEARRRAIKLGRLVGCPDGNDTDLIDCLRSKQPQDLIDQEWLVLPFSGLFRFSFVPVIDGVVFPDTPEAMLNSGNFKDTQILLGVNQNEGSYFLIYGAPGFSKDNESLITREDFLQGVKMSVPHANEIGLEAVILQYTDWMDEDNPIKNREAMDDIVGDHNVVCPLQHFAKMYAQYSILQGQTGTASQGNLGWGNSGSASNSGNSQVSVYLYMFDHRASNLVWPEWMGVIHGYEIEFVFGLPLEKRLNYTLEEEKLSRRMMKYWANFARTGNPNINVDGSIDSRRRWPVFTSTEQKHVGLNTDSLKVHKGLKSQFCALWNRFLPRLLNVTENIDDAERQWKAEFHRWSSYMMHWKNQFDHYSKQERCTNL
T1 sequence (P81908 whole entry): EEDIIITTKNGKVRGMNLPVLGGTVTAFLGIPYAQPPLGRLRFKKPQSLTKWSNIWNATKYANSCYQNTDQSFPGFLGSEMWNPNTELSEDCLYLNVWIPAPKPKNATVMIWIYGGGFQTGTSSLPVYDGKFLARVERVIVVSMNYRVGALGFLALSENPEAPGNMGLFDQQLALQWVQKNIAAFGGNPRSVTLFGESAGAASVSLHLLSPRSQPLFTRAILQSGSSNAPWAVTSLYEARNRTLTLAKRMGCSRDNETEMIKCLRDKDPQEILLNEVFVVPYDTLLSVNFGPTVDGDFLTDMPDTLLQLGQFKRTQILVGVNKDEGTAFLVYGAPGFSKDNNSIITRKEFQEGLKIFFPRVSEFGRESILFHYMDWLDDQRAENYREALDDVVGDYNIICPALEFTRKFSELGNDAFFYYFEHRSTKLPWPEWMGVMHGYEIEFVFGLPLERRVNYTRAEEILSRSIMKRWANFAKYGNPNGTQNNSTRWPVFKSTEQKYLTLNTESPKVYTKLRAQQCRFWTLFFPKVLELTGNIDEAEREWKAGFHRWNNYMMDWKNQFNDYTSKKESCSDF

SMILES	AChE inhibitory efficacy (percentage of inhibition) [1]	logD [2]	MTT reduction (% control) [3] [%]	Neuroprotective effect against Aβ1-42-induced toxicity (MTT cell viability) [4]	inhibition at 100 µM [5] [%]	Neuroprotective effect against H2O2-induced toxicity (MTT cell viability) [6]	Log Pe (effective permeability) [7]
O=c1cc(-c2ccc(F)cc2)oc2cc(O)cc(O)c12 [Compound 7, 4′-Fluoro-5,7-dihydroxyflavone]	n.i .	> 2.5	109.4 ± 11.4	contrarily	23		
O=c1cc(-c2ccc(N3CCOCC3)cc2)oc2cc(O)cc(O)c12 [Compound 8, 5,7-Dihydroxy-4′-(morpholin-4-yl)flavone]		> 2.5	57.6 ± 25.5	displayed relevant neuroprotective effects against Aβ1-42		able to produce statistically significant differences when compared to H2O2 controls	
O=c1cc(-c2ccc(F)cc2)oc2c([C@@H]3O[C@H](CO)[C@@H](O)[C@H](O)[C@H]3O)c(O)cc(O)c12 [Compound 18, 4′-Fluoro-8-(β-D-glucopyranosyl)-5,7-dihydroxyflavone]		-0.2 ± 0.1	136.7 ±12.9				no detectable permeability; also recorded: Below detection limit
